Reference: patent US7807845B2, “Resistance-repellent retroviral protease inhibitors” (priority 2004, dated 2010)

Experiments:
mutant HIV PR (Mutant 8) = mutant HIV PR (Mutant 8) (Human immunodeficiency virus type 1 group M subtype B, UniProt P04585); test: HIV PR inhibition assay, Mutant 8; assay type: biochemical; settings: read-out: Ki Mutant 8; recombinant mutant HIV PR, fluorogenic substrate, pH 6.5
Protocol: (§1) Expression and purification of WT and mutant HIV PR. Recombinant wild type and mutant HIV PRs were expressed using pET21 vector (Novagen) in E. coli cells, and purified and refolded as described previously (Gulnik et al, 1995). The cells were resuspended in 50 mM tris-HCl buffer, pH 8.0, 25 mM NaCl, 0.2% β-mercaptoethanol (buffer A), sonicated and centrifuged. Inclusion bodies were washed first with buffer A, then with buffer A containing respectively 0.1% Triton X-100, 1 M NaCl, 1 M urea, and finally with buffer A alone. Purified inclusion bodies were solubilized by addition of buffer A containing 8 M urea at room temperature. The solution was clarified by centrifugation and loaded onto 2.6×9.5 cm Q-Sepharose column. Flow-through fractions were collected and dialyzed against 3 changes of refolding buffer, which consists of 25 mM Na-phosphate, pH 7.0, 25 mM NaCl, 0.2% β-mercaptoethanol and 10% glycerol, aliquoted and stored at −80° C.
(§2) Inhibition constants were determined using the fluorogenic substrate ArgGlu(EDANS)[…]DABCYL)Arg (Amichem, USA). HIV Protease was preincubated for 0.5-1 min at ambient temperature on a 96 well plate with different concentrations of inhibitor in 0.05 M sodium phosphate buffer, pH 6.5, containing 20 mM NaCl, 2 mM DTT and 0.01% Tween-20. The reaction was initiated by the addition of substrate. Final enzyme concentration was 2-5 nM for WT and 2-30 nM for mutants. Substrate concentration was 20 uM and DMSO concentration 2%. The increase in fluorescence intensity at the emission maximum of 520 nm (excitation wavelength 340 nm, cut-off filter 495 nm) was monitored as a function of time using a Spectramax Gemini fluorescence plate reader (Molecular Devices, CA USA). The initial rate of hydrolysis was calculated by first-degree polynomial fit using SoftMAX operating software. Data were fitted to the Michaelis-Menten equation for competitive inhibitors. For tight-binding inhibitors the data were fitted by nonlinear regression analysis to the equation V=V0/2Et({[Ki(1+S/Km)+It−Et]^2+4Ki(1+S/Km)Et}^1/2−[Ki(1+S/Km)+It−Et]) (Williams and Morrison, 1979) with the program GraFit, version 5 (Erithacus Software Limited, UK), where V and V0 are initial velocities with and without inhibitor, Km is the Michaelis-Menten constant and S, Et and It are the concentrations of substrate, active enzyme and inhibitor respectively.

[1] = system: HIVmutant10 (16 mutations); test: Antiviral assay in MT-4 cells (MTT), mutant 10 virus; assay type: cell-based, HIV; settings: Human immunodeficiency virus 1, MT4, 120 h, read-out: IC50 Mutant 10
Protocol: (§3) MT-4 cells were obtained from the AIDS Research and Reference Reagent Program (ARRRP, Division of AIDS, NIAID, NIH: MT-4 from Dr. D. Richman). Cells were propagated in RPMI 1640 supplemented with 10% fetal bovine serum, 50U of penicillin and 50 μg of streptomycin per ml (Invitrogen, Carlsbad Calif.). The following HIV viruses were used for testing of antiviral potency of compounds: WT=HIVHXB2; recombinant HIVHXB2 virus from drug resistant patient isolates; HIVmutant10 (16 mutations); HIVmutant8 (14 mutations); HIVmutant9 (10 mutations).
(§4) The potency of test compound was determined as previously described (ref 1-3) with minor modifications. MT-4 cells (1.5×10^4/ml) were exposed to 200 50 % tissue culture infective doses (TCID50) of viruses in the presence of various concentrations of test compound in 96 well microtiter plates and incubated at 37° C. for 5 days. 3-(4,5-dimethylthiazol-2-yl)-2,5-diphenytetrazolium bromide (MTT) solution was added to a final concentration of 0.75 mg/ml, and plates were incubated 1 hour. After incubation cells were dissolved in isopropanol/Triton-X 100/HCl (1000:50:25) solution. Absorbance was monitored in a microplate reader (Spectramax, Molecular Devices) at 540 nm and 690 nm. Cytotoxicity of compounds was tested in a similar assay in the absence of virus.

WT=HIVHXB2 = test: Antiviral assay in MT-4 cells (MTT), WT virus; assay type: cell-based, HIV; settings: Human immunodeficiency virus 1, MT4, 120 h, HIVHXB2, 5 days
Protocol: as §3, §4

[2] = system: HIVmutant9 (10 mutations); test: Antiviral assay in MT-4 cells (MTT), mutant 9 virus; assay type: cell-based, HIV; settings: Human immunodeficiency virus 1, MT4, 120 h, read-out: IC50 Mutant 9
Protocol: as §3, §4

mutant HIV PR (Mutant 9) = mutant HIV PR (Mutant 9) (Human immunodeficiency virus type 1 group M subtype B, UniProt P04585); test: HIV PR inhibition assay, Mutant 9; assay type: biochemical; settings: read-out: Ki Mutant 9; recombinant mutant HIV PR, fluorogenic substrate, pH 6.5
Protocol: as §1, §2

wild type HIV PR = molecular target: T1, wild type HIV PR (Human immunodeficiency virus type 1 group M subtype B, UniProt P04585); test: HIV PR inhibition assay, wild type; assay type: biochemical
T1 construct: Recombinant wild type and mutant HIV PRs were expressed using pET21 vector (Novagen) in E. coli cells; made in house
Protocol: as §1, §2

[3] = system: HIVmutant8 (14 mutations); test: Antiviral assay in MT-4 cells (MTT), mutant 8 virus; assay type: cell-based, HIV; settings: Human immunodeficiency virus 1, MT4, 120 h, read-out: IC50 Mutant 8
Protocol: as §3, §4

[4] = molecular target: mutant HIV PR (Mutant 10) (Human immunodeficiency virus type 1 group M subtype B, UniProt P04585); test: HIV PR inhibition assay, Mutant 10; assay type: biochemical; settings: read-out: Ki Mutant 10; recombinant mutant HIV PR, fluorogenic substrate, pH 6.5
Protocol: as §1, §2

Structure (SMILES)	Ki (mutant HIV PR (Mutant 8)) [nM]	IC50 [1] [nM]	IC50 (WT=HIVHXB2) [nM]	IC50 [2] [nM]	Ki (mutant HIV PR (Mutant 9)) [nM]	Ki (wild type HIV PR) [nM]	IC50 [3] [nM]	Ki [4] [nM]
CC(C)CN(CC(O)C(Cc1ccccc1)NC(=O)OC1COC2OCCC12)S(=O)(=O)c1ccc2c(c1)C(=CNCCCCc1ccccc1)C(=O)N2 (stereo not drawn) [Compound 78, [1-Benzyl-2-hydroxy-3-(isobutyl-{2-oxo-3-[(4-phenyl-butylamino)-methylene]-2,3-dihydro-1H-indole-5-sulfonyl}-amino)-propyl]-carbamic acid hexahydro-furo[2,3-b]furan-3-yl ester]	< 0.3	105	11	17	< 0.1	< 0.1	55	< 1
CC(C)CN(CC(O)C(Cc1ccccc1)NC(=O)OC1COC2OCCC12)S(=O)(=O)c1ccc2c(c1)C(=CNC1CCCCC1)C(=O)N2 (stereo not drawn) [Compound 107]	< 0.3	110	13	28	0.21	< 0.1	39	1.2
CC(C)CCNC=C1C(=O)Nc2ccc(S(=O)(=O)N(CC(C)C)CC(O)C(Cc3ccccc3)NC(=O)OC3COC4OCCC34)cc21 (stereo not drawn) [Compound 66, [1-Benzyl-2-hydroxy-3-(isobutyl-{3-[(3-methyl-butylamino)-methylene]-2-oxo-2,3-dihydro-1H-indole-5-sulfonyl}-amino)-propyl]-carbamic acid hexahydro-furo[2,3-b]furan-3-yl ester]	< 0.3	39	12		< 0.1	< 0.1	26	< 1
CCNC(C)=C1C(=O)Nc2ccc(S(=O)(=O)N(CC(C)C)CC(O)C(Cc3ccccc3)NC(=O)OC3COC4OCCC34)cc21 (stereo not drawn) [Compound 43, (1-Benzyl-3-{[3-(1-ethylamino-ethylidene)-2-oxo-2,3-dihydro-1H-indole-5-sulfonyl]-isobutyl-amino}-2-hydroxy-propyl)-carbamic acid hexahydro-furo[2,3-b]furan-3-yl ester]	< 0.3	65	7	9	< 0.1	< 0.1	23	< 1
CC(C)CN(CC(O)C(Cc1ccccc1)NC(=O)OC1COC2OCCC12)S(=O)(=O)c1ccc2c(c1)C(=CNCCc1ccccn1)C(=O)N2 (stereo not drawn) [Compound 76, [1-Benzyl-2-hydroxy-3-(isobutyl-{2-oxo-3-[(2-pyridin-2-yl-ethylamino)-methylene]-2,3-dihydro-1H-indole-5-sulfonyl}-amino)-propyl]-carbamic acid hexahydro-furo[2,3-b]furan-3-yl ester]	< 0.3	28	33	35	< 0.1	< 0.1	61	< 1
CCc1cccc(NC=C2C(=O)Nc3ccc(S(=O)(=O)N(CC(C)C)CC(O)C(Cc4ccccc4)NC(=O)OC4COC5OCCC45)cc32)n1 (stereo not drawn) [Compound 112]	< 0.3	200	7	30	0.17	< 0.1	50	6.4
CC(C)CNC=C1C(=O)Nc2ccc(S(=O)(=O)N(CC(C)C)CC(O)C(Cc3ccccc3)NC(=O)OC3COC4OCCC34)cc21 (stereo not drawn) [Compound 60, (1-Benzyl-2-hydroxy-3-{isobutyl-[3-(isobutylamino-methylene)-2-oxo-2,3-dihydro-1H-indole-5-sulfonyl]-amino}-propyl)-carbamic acid hexahydro-furo[2,3-b]furan-3-yl ester]	< 0.3	33	7.5	9.5	0.15	< 0.1	16	< 1
C=CCN(C=C1C(=O)Nc2ccc(S(=O)(=O)N(CC(C)C)CC(O)C(Cc3ccccc3)NC(=O)OC3COC4OCCC34)cc21)C1CCCC1 (stereo not drawn) [Compound 116]	< 0.3	150	15	20	< 0.1	< 0.1	50	< 1
CCCC(C)NC=C1C(=O)Nc2ccc(S(=O)(=O)N(CC(C)C)CC(O)C(Cc3ccccc3)NC(=O)OC3COC4OCCC34)cc21 (stereo not drawn) [Compound 108]	< 0.3	80	9	15	< 0.1	< 0.1	35	< 1
CCOC(=O)C(NC=C1C(=O)Nc2ccc(S(=O)(=O)N(CC(C)C)CC(O)C(Cc3ccccc3)NC(=O)OC3COC4OCCC34)cc21)C(C)C (stereo not drawn) [Compound 133]	< 0.3	27	17	16	0.4	0.14	19	3.1
CC(C)CN(CC(O)C(Cc1ccccc1)NC(=O)OC1COC2OCCC12)S(=O)(=O)c1ccc2c(c1)C(=CNCc1ccc3ccccc3n1)C(=O)N2 (stereo not drawn) [Compound 130]	< 0.3	27	32	23	< 0.1	0.1		< 1
CNC(C)=C1C(=O)Nc2ccc(S(=O)(=O)N(CC(C)C)CC(O)C(Cc3ccccc3)NC(=O)OC3COC4OCCC34)cc21 (stereo not drawn) [Compound 41, (1-Benzyl-2-hydroxy-3-{isobutyl-[3-(1-methylamino-ethylidene)-2-oxo-2,3-dihydro-1H-indole-5-sulfonyl]-amino}-propyl)-carbamic acid hexahydro-furo[2,3-b]furan-3-yl ester]	< 0.3	56	10	17	< 0.1	< 0.1	29	< 1
CCOC(=O)CN(C=C1C(=O)Nc2ccc(S(=O)(=O)N(CC(C)C)CC(O)C(Cc3ccccc3)NC(=O)OC3COC4OCCC34)cc21)Cc1ccccc1 (stereo not drawn) [Compound 138]	< 0.3	16	31	15	0.11	< 0.1		1.9
CC(NCC(F)(F)F)=C1C(=O)Nc2ccc(S(=O)(=O)N(CC(C)C)CC(O)C(Cc3ccccc3)NC(=O)OC3COC4OCCC34)cc21 (stereo not drawn) [Compound 45, [1-Benzyl-2-hydroxy-3-(isobutyl-{2-oxo-3-[1-(2,2,2-trifluoro-ethylamino)-ethylidene]-2,3-dihydro-1H-indole-5-sulfonyl}-amino)-propyl]-carbamic acid hexahydro-furo[2,3-b]furan-3-yl ester]	< 0.3	52	13		< 0.1	< 0.1	26	3.1
